Experiments:
Experiment in all cases: relative viability (nuclei count vs DMSO), 5 days (fraction); higher = more cells survive
Bexarotene + Luminespib = compound: C=C(c1ccc(C(=O)O)cc1)c1cc2c(cc1C)C(C)(C)CCC2(C)C [Bexarotene] + CCNC(=O)c1noc(-c2cc(C(C)C)c(O)cc2O)c1-c1ccc(CN2CCOCC2)cc1 [Luminespib] (partner 0.01 µM)
Outline: (§1)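 The day after seeding in 1536-well plates, lung cancer cell lines were treated by pin tool with a single drug, or with a fixed anchor-drug dose together with five library-drug doses (not always all listed) in √10 steps. After 5 days, a combined fix-and-stain solution (final 0.05% Triton X-100, 1% formaldehyde, 1 ug/ml Hoechst) was added. Nuclei counted on 4× images gave relative viability as treated counts over vehicle counts, reported as the median of duplicate plates.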

Bexarotene + Tozasertib = compound: C=C(c1ccc(C(=O)O)cc1)c1cc2c(cc1C)C(C)(C)CCC2(C)C [Bexarotene] + Cc1cc(Nc2cc(N3CCN(C)CC3)nc(Sc3ccc(NC(=O)C4CC4)cc3)n2)n[nH]1 [Tozasertib] (partner 0.1 µM)
Outline: as §1

Bexarotene + AZD7762 = compound: C=C(c1ccc(C(=O)O)cc1)c1cc2c(cc1C)C(C)(C)CCC2(C)C [Bexarotene] + NC(=O)Nc1cc(-c2cccc(F)c2)sc1C(=O)N[C@H]1CCCNC1 [AZD7762] (partner 0.2 µM)
Outline: as §1

Bexarotene + Foretinib = compound: C=C(c1ccc(C(=O)O)cc1)c1cc2c(cc1C)C(C)(C)CCC2(C)C [Bexarotene] + COc1cc2c(Oc3ccc(NC(=O)C4(C(=O)Nc5ccc(F)cc5)CC4)cc3F)ccnc2cc1OCCCN1CCOCC1 [Foretinib] (partner 0.25 µM)
Outline: as §1

Cell Line	relative viability (Bexarotene + Luminespib; first compound 0.08 µM)	relative viability (Bexarotene + Luminespib; first compound 0.253 µM)	relative viability (Bexarotene + Luminespib; first compound 0.8 µM)	relative viability (Bexarotene + Luminespib; first compound 2.53 µM)	relative viability (Bexarotene + Luminespib; first compound 8 µM)	relative viability (Bexarotene + Tozasertib; first compound 0.08 µM)	relative viability (Bexarotene + Tozasertib; first compound 0.253 µM)	relative viability (Bexarotene + Tozasertib; first compound 0.8 µM)	relative viability (Bexarotene + Tozasertib; first compound 2.53 µM)	relative viability (Bexarotene + Tozasertib; first compound 8 µM)	relative viability (Bexarotene + AZD7762; first compound 0.08 µM)	relative viability (Bexarotene + AZD7762; first compound 0.253 µM)	relative viability (Bexarotene + AZD7762; first compound 0.8 µM)	relative viability (Bexarotene + AZD7762; first compound 2.53 µM)	relative viability (Bexarotene + AZD7762; first compound 8 µM)	relative viability (Bexarotene + Foretinib; first compound 0.08 µM)	relative viability (Bexarotene + Foretinib; first compound 0.253 µM)	relative viability (Bexarotene + Foretinib; first compound 0.8 µM)	relative viability (Bexarotene + Foretinib; first compound 2.53 µM)	relative viability (Bexarotene + Foretinib; first compound 8 µM)
HCC-44	1.31	1.03	1.08	1.02	0.977	1.34	1.07	0.925	0.842	0.82	0.978	1.12	0.927	0.967	0.964	–	–	–	–	–
HCC-78	–	–	–	–	–	0.401	0.483	0.414	0.435	0.413	0.638	0.391	0.542	0.554	0.638	0.54	0.499	0.547	0.523	0.468
HCC-366	–	–	–	–	–	0.169	0.118	0.119	0.0858	0.113	0.412	0.397	0.284	0.279	0.358	0.94	0.989	0.962	0.969	0.834
IA-LM	–	–	–	–	–	–	–	–	–	–	–	–	–	–	–	1.03	1.14	0.98	0.935	0.93
NCI-H520	0.236	0.22	0.229	0.22	0.226	0.409	0.454	0.411	0.417	0.382	–	–	–	–	–	0.854	0.678	0.652	0.812	0.727
NCI-H522	1.24	1.09	1.17	1.23	0.899	0.551	0.523	0.562	0.506	0.634	0.788	0.949	0.734	0.697	0.822	–	–	–	–	–
NCI-H661	0.943	0.9	0.929	0.89	0.89	0.387	0.357	0.348	0.355	0.341	–	–	–	–	–	1.02	1.04	0.916	0.967	0.933
NCI-H1299	–	–	–	–	–	–	–	–	–	–	–	–	–	–	–	1.06	1.18	1.05	1.1	1.08
NCI-H1563	0.518	0.493	0.48	0.524	0.503	–	–	–	–	–	–	–	–	–	–	1.04	0.868	0.824	0.989	0.85
NCI-H1648	–	–	–	–	–	0.453	0.559	0.307	0.492	0.384	0.615	0.57	0.623	0.695	0.627	–	–	–	–	–
NCI-H1650	0.195	0.183	0.219	0.225	0.231	0.483	0.541	0.55	0.397	0.419	–	–	–	–	–	1.13	0.988	1.09	1.18	1.11

Source: the supplement of paper PMC10307832
